Source: ChEMBL document CHEMBL4507274 (2021)

Columns and labels:
[1] = biological target: Epidermal growth factor receptor (Homo sapiens) (UniProt P00533); conditions: Compound concentration 100.0 nM
[2] = test system: Epidermal growth factor receptor (Homo sapiens), P00533 [UNDEFINED MUTATION]; conditions: Compound concentration 100.0 nM
[3] = test system: Epidermal growth factor receptor (Homo sapiens), P00533 [UNDEFINED MUTATION]; conditions: Compound concentration 100.0 nM; remark: listed apart in the source
[4] = biological target: Tyrosine-protein kinase BTK (Homo sapiens) (UniProt Q06187); assay: BTK (h) Upstate kinase activity assay; conditions: Compound concentration 10.0 uM
[5] = biological target: T1, Calcium/calmodulin-dependent protein kinase type IV (Homo sapiens) (UniProt Q16566); assay: CaMKIV (h) Upstate kinase activity assay; conditions: Compound concentration 10.0 uM
T1 sequence (whole entry): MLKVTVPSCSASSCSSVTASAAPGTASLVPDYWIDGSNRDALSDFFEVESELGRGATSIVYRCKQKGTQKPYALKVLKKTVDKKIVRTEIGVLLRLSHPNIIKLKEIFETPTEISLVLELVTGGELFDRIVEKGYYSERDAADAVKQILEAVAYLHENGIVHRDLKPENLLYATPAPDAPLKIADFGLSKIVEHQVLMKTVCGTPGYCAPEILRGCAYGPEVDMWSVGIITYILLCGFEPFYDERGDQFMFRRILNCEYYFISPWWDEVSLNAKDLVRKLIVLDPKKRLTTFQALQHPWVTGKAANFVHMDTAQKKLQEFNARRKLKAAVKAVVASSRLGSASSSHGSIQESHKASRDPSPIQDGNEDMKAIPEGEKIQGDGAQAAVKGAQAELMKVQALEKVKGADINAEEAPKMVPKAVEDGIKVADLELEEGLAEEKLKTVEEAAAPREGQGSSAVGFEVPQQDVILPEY

[6] = biological target: Cyclin-dependent kinase 5/CDK5 activator 1 (Homo sapiens) (UniProt Q00535+Q15078); assay: CDK5/ p35 (h) Upstate kinase activity assay; type: protein-complex assay; conditions: Compound concentration 10.0 uM
[7] = biological target: CDK6/cyclin D3 (Homo sapiens) (UniProt P30281+Q00534); assay: CDK6/ cyclin D3 (h) Upstate kinase activity assay; type: protein-complex assay; conditions: Compound concentration 10.0 uM
[8] = biological target: Tyrosine-protein kinase Lck (Homo sapiens) (UniProt P06239); assay: Lck (h) Upstate kinase activity assay; conditions: Compound concentration 10.0 uM
[9] = biological target: Tyrosine-protein kinase Lyn (Mus musculus) (UniProt P25911); assay: Lyn (m) Upstate kinase activity assay; conditions: Compound concentration 10.0 uM
[10] = biological target: Hepatocyte growth factor receptor (Homo sapiens) (UniProt P08581); assay: Met (h) Upstate kinase activity assay; conditions: Compound concentration 10.0 uM
[11] = biological target: Ribosomal protein S6 kinase alpha-5 (Homo sapiens) (UniProt O75582); assay: MSK1 (h) Upstate kinase activity assay; conditions: Compound concentration 10.0 uM
[12] = biological target: Ribosomal protein S6 kinase beta-1 (Homo sapiens) (UniProt P23443); assay: […] (h) Upstate kinase activity assay; conditions: Compound concentration 10.0 uM
[13] = biological target: T2, Tyrosine-protein kinase receptor TYRO3 (Homo sapiens) (UniProt Q06418); assay: Rse (h) Upstate kinase activity assay; conditions: Compound concentration 10.0 uM
T2 sequence (whole entry): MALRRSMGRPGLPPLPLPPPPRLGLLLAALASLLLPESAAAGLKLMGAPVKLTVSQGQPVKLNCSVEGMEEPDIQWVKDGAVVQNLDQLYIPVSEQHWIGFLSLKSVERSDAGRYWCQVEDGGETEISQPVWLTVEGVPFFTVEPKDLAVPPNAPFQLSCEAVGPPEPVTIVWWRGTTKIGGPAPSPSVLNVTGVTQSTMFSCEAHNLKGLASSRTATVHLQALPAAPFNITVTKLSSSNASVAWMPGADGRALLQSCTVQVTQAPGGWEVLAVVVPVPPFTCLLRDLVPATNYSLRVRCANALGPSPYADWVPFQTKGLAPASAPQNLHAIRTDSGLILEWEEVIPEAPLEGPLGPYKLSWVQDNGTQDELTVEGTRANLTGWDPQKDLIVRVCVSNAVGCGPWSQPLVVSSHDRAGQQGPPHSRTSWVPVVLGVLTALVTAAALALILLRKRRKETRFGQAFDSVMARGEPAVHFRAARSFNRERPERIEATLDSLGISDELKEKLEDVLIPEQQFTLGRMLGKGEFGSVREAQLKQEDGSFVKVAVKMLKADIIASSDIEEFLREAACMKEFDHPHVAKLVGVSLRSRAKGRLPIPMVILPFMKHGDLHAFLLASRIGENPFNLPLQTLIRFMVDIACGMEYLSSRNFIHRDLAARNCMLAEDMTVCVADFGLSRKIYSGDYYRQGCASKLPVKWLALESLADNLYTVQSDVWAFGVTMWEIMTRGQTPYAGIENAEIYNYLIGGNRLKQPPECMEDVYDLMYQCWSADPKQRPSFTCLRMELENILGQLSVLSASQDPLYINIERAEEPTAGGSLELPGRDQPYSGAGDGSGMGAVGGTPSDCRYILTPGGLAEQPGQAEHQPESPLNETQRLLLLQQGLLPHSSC

[14] = biological target: Ribosomal protein S6 kinase alpha-2 (Homo sapiens) (UniProt Q15349); assay: Rsk3 (h) Upstate kinase activity assay; conditions: Compound concentration 10.0 uM
[15] = biological target: Tyrosine-protein kinase SYK (Homo sapiens) (UniProt P43405); assay: Syk (h) Upstate kinase activity assay; conditions: Compound concentration 10.0 uM
[16] = biological target: Angiopoietin-1 receptor (Homo sapiens) (UniProt Q02763); assay: Tie2 (h) Upstate kinase activity assay; conditions: Compound concentration 10.0 uM
[17] = test system: HT-29; assay: Colon HT-29 cell line MDS Pharma Services Proliferation Assay; type: functional, cell-based, Homo sapiens
[18] = test system: ACHN; assay: Kidney ACHN cell line MDS Pharma Services Proliferation Assay; type: functional, cell-based, Homo sapiens
[19] = Leukemia […] cell line MDS Pharma Services Proliferation Assay; type: functional, cell-based, Homo sapiens
[20] = test system: U-937; assay: Lymphoma U937 cell line MDS Pharma Services Proliferation Assay; type: functional, cell-based, Homo sapiens
[21] = biological target: 5-hydroxytryptamine receptor 1A (Homo sapiens) (UniProt P08908); conditions: Compound concentration 10.0 uM
[22] = biological target: Rho-associated protein kinase 2 (Homo sapiens, UniProt O75116); conditions: Compound concentration 10.0 uM

Chain of Epidermal growth factor receptor (Homo sapiens), P00533 [UNDEFINED MUTATION] (P00533 whole entry, looked up, change not shown): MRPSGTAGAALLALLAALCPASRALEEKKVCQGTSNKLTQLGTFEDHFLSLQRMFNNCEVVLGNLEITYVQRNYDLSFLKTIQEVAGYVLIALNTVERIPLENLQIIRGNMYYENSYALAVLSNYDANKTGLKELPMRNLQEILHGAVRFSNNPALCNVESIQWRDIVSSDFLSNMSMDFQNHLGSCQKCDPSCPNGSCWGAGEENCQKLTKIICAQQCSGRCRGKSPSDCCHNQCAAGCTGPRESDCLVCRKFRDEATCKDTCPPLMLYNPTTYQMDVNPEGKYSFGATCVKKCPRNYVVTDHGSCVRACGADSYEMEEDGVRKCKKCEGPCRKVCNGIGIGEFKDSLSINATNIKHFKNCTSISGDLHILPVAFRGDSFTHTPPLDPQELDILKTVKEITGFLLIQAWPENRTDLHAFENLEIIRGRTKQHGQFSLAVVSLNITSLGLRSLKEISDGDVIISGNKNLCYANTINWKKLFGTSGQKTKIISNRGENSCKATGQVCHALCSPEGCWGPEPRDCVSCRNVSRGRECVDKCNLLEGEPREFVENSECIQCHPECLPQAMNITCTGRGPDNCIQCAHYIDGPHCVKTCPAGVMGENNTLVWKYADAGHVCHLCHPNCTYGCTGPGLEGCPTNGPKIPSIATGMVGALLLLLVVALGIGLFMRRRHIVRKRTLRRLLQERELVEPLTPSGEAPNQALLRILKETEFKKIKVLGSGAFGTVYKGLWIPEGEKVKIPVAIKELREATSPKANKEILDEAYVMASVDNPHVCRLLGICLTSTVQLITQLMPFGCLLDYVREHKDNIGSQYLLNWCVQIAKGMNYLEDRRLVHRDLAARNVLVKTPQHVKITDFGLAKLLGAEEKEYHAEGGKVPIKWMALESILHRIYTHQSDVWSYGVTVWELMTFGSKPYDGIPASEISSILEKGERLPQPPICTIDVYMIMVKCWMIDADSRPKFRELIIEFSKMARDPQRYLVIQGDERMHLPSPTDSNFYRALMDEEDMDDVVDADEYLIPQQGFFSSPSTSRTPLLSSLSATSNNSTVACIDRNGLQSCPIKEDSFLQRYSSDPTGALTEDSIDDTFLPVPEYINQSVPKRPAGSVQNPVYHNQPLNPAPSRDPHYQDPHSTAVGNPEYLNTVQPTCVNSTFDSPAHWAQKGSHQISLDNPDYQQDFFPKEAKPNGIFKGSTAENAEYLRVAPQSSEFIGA
Chain of Tyrosine-protein kinase BTK (Homo sapiens) (Q06187 whole entry): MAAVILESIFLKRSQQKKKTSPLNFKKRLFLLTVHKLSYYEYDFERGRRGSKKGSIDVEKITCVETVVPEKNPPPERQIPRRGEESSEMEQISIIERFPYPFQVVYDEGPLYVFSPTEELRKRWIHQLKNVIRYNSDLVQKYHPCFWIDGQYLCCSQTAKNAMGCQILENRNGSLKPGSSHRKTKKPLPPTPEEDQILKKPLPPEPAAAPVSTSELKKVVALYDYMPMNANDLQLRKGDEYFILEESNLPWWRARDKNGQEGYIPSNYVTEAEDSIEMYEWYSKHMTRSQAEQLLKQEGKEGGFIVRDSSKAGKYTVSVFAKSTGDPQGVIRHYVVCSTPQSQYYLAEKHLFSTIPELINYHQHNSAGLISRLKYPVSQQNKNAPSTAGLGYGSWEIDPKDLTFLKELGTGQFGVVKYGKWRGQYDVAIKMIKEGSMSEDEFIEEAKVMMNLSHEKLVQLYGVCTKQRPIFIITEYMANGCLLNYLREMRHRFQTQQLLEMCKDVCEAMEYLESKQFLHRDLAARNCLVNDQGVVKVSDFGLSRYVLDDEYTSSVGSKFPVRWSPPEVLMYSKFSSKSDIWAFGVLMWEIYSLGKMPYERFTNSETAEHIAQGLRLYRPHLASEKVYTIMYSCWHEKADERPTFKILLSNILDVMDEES
Chain of 5-hydroxytryptamine receptor 1A (Homo sapiens) (P08908 whole entry): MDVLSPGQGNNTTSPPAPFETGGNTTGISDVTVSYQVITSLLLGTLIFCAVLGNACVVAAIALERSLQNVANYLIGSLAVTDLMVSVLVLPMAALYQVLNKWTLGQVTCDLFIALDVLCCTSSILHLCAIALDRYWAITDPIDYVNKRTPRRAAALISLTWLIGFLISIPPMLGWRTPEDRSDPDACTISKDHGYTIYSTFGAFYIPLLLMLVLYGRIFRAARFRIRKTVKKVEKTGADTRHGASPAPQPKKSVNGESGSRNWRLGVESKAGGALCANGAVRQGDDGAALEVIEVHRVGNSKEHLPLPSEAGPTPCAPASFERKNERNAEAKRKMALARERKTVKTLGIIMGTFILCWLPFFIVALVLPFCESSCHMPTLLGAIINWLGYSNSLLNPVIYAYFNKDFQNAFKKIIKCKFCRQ
Chain of Epidermal growth factor receptor (Homo sapiens) (P00533 whole entry): as the sequence (P00533 whole entry, looked up, change not shown) above
Chain of Ribosomal protein S6 kinase alpha-2 (Homo sapiens) (Q15349 whole entry): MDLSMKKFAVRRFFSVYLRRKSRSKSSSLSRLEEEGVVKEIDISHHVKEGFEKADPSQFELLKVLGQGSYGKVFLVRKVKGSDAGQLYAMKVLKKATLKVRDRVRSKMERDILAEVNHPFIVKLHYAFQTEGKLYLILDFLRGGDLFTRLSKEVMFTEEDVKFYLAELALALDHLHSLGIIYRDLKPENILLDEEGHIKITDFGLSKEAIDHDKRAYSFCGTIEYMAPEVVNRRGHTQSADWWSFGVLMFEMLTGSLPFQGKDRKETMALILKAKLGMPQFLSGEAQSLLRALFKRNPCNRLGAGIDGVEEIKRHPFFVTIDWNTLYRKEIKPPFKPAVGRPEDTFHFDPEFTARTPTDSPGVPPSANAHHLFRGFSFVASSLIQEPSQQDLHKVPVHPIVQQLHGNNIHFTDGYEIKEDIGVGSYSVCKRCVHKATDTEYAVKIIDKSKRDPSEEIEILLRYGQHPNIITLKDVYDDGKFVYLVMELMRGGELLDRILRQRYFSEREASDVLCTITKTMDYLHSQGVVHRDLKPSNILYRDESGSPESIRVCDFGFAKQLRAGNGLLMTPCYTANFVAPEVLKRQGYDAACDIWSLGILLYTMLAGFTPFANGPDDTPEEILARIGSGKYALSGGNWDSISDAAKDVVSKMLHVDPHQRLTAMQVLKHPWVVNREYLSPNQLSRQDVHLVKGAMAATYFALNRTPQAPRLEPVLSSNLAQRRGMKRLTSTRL
Chain of Ribosomal protein S6 kinase beta-1 (Homo sapiens) (P23443 whole entry, looked up): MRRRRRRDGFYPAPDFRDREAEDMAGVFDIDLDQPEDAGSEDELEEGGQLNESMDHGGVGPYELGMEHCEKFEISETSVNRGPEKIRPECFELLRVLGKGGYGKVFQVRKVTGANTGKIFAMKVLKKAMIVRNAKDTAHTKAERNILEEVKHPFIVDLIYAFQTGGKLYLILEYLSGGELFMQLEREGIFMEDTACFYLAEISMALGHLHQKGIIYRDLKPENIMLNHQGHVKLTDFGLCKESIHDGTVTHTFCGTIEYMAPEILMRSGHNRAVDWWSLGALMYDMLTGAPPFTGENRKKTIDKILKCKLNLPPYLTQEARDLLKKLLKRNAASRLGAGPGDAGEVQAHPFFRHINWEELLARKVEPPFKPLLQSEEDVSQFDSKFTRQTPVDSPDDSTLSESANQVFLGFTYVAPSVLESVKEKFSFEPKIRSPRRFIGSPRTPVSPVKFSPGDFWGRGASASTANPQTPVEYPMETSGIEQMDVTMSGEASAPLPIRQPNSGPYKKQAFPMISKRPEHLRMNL

Cn1cc(Cl)c2c(Oc3c(F)cc(Nc4cc(Cl)nc(N)n4)cc3F)ccnc21 [BAY-4900]
residual activity [1]: 97%
residual activity [2]: 94%
residual activity [3]: 77%

Cc1c[nH]c2nccc(Oc3c(F)cc(Nc4cc(Cl)nc(N)n4)cc3F)c12 [BAY-549]
inhibition [4]: 1%
inhibition [5]: -8%
inhibition [6]: 7%
inhibition [7]: 9%
inhibition [8]: 50%
inhibition [9]: 4%
inhibition [10]: 82%
inhibition [11]: 86%
inhibition [12]: 84%
inhibition [13]: 15%
inhibition [14]: 48%
inhibition [15]: 20%
inhibition [16]: 26%
IC50 ([17]; Homo sapiens, HT-29): 2.9 µM
TGI ([17]; Homo sapiens, HT-29): 19 µM
CC50 ([17]; Homo sapiens, HT-29, read-out: LC50 (the source's name)): > 100 µM
Mean % growth (n = 2) for 0.1 µM probe concentration ([17]; ± SEM 1 % growth): 95%
Mean % growth (n = 2) for 1.0 µM probe concentration ([17]; ± SEM 1 % growth): 75%
Mean % growth (n = 2) for 10.0 µM probe concentration ([17]; ± SEM 4 % growth): 10%
Mean % growth (n = 2) for 0.01 µM probe concentration ([17]; ± SEM 8 % growth): 100%
Mean % growth (n = 2) for 100.0 µM probe concentration ([17]; ± SEM 9 % growth): -38%
Mean % growth (n = 2) for 10.0 µM probe concentration [18]: 27%
IC50 ([18]; Homo sapiens, ACHN): 3.6 µM
TGI ([18]; Homo sapiens, ACHN): 32 µM
CC50 ([18]; Homo sapiens, ACHN, read-out: LC50 (the source's name)): > 100 µM
Mean % growth (n = 2) for 0.01 µM probe concentration ([18]; ± SEM 1 % growth): 103%
Mean % growth (n = 2) for 0.1 µM probe concentration ([18]; ± SEM 2 % growth): 106%
Mean % growth (n = 2) for 100.0 µM probe concentration ([18]; ± SEM 4 % growth): -25%
Mean % growth (n = 2) for 1.0 µM probe concentration ([18]; ± SEM 10 % growth): 60%
IC50 ([19]; Homo sapiens, Leukemia 1-IL-60): 21 µM
TGI ([19]; Homo sapiens, Leukemia 1-IL-60): > 100 µM
CC50 ([19]; Homo sapiens, Leukemia 1-IL-60, read-out: LC50 (the source's name)): > 100 µM
Mean % growth (n = 2) for 100.0 µM probe concentration ([19]; ± SEM 2 % growth): 35%
Mean % growth (n = 2) for 0.01 µM probe concentration ([19]; ± SEM 4 % growth): 98%
Mean % growth (n = 2) for 0.1 µM probe concentration ([19]; ± SEM 4 % growth): 88%
Mean % growth (n = 2) for 1.0 µM probe concentration ([19]; ± SEM 5 % growth): 89%
Mean % growth (n = 2) for 10.0 µM probe concentration ([19]; ± SEM 6 % growth): 53%
IC50 ([20]; Homo sapiens, U-937): 14 µM
TGI ([20]; Homo sapiens, U-937): > 100 µM
CC50 ([20]; Homo sapiens, U-937, read-out: LC50 (the source's name)): > 100 µM
Mean % growth (n = 2) for 0.01 µM probe concentration ([20]; ± SEM 1 % growth): 101%
Mean % growth (n = 2) for 0.1 µM probe concentration ([20]; ± SEM 2 % growth): 103%
Mean % growth (n = 2) for 1.0 µM probe concentration ([20]; ± SEM 2 % growth): 104%
Mean % growth (n = 2) for 100.0 µM probe concentration ([20]; ± SEM 5 % growth): 17%
Mean % growth (n = 2) for 10.0 µM probe concentration ([20]; ± SEM 7 % growth): 56%
inhibition [21]: 11.7%
inhibition [22]: 100%
